# Results as given in US8580762B2, “Substituted purine and 7-deazapurine compounds” (Epizyme, Inc., priority 2010, dated 2013).
# Biological target: DOT1L(1-416) (Homo sapiens, UniProt Q8TEK3)
# Assay: Determination of IC50: DOT1L(1-416) methyltransferase assay, 3H-SAM, oligonucleosome substrate, Flashplate
# Format: biochemical
# Conditions: class symbols; read-out: DOT1L IC50
# Experimental: Determination of IC50. Test compounds were serially diluted 3 fold in DMSO for 10 points and 1 μl was plated in a 384 well microtiter plate. […] 10 μl per well of substrate mix (same assay buffer with 200 nM S-[methyl-^3H]-adenosyl-L methionine, 600 nM of unlabeled […], and 20 nM oligonueleosome) was added to initiate the reaction. Reaction was incubated for 120 minutes at room temperature and quenched with 10 μl per well of 100 μM S-methyl-adenosyl-L methionine. For detection, substrate from 50 μl of reaction was immobilized on a 384 well Streptavidin coated Flashplate (Perkin Elmer) (also coated with 0.2% polyethyleneimine) and read on a Top Count scintillation counter (Perkin Elmer).
# Sequence of DOT1L(1-416) (Q8TEK3 1-416): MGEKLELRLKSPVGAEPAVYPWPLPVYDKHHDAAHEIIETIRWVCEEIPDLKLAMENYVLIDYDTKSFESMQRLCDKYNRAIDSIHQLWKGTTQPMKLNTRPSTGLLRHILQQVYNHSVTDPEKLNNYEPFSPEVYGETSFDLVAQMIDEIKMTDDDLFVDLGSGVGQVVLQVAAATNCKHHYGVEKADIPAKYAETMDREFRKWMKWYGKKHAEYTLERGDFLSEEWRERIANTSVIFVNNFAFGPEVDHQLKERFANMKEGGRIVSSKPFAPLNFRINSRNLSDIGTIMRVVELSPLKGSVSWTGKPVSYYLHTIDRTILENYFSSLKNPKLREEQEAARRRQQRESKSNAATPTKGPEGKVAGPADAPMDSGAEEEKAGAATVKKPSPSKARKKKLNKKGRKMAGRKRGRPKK
row,SMILES,IC50 [nM]
1,"CC(C)N(C[C@H]1O[C@@H](n2cnc3c(N)ncnc32)[C@H](O)[C@@H]1O)[C@H]1C[C@H](CCc2nc3cc(Cl)c(C(F)(F)F)cc3[nH]2)C1 [Compound 4, (2R,3R,4S,5R)-2-(6-amino-9H-purin-9-yl)-5-((((1s,3R)-3-(2-(5-chloro-6-(trifluoromethyl)-1H-benzo[d]imidazol-2-yl)ethyl)cyclobutyl)(isopropyl)amino)methyl)tetrahydrofuran-3,4-diol]",< 100
2,CC(C)N(C[C@H]1O[C@@H](n2cnc3c(N)ncnc32)[C@H](O)[C@@H]1O)[C@H]1C[C@@H](CCc2nc3cc(Cl)c(C(F)(F)F)cc3[nH]2)C1 [Compound 5],< 100
3,"CN(C[C@H]1O[C@@H](n2ccc3c(N)ncnc32)[C@H](O)[C@@H]1O)C1CC(Cc2nc3cc(C(C)(C)C)ccc3[nH]2)C1 (stereo partly drawn) [Compound 6, (2R,3R,4S,5R)-2-(4-amino-7H-pyrrolo[2,3-d]pyrimidin-7-yl)-5-(((3-((5-(tert-butyl)-1H-benzo[d]imidazol-2-yl)methyl)cyclobutyl)(methyl)amino)methyl)tetrahydrofuran-3,4-diol]",< 100
4,"CN(C[C@H]1C[C@@H](n2ccc3c(N)ncnc32)[C@H](O)[C@@H]1O)C1CC(CCc2nc3cc(C(F)(F)F)c(Cl)cc3[nH]2)C1 (stereo partly drawn) [Compound 7, (1R,2S,3R,5R)-3-(4-amino-7H-pyrrolo[2,3-d]pyrimidin-7-yl)-5-(((3-(2-(6-chloro-5-(trifluoromethyl)-1H-benzo[d]imidazol-2-yl)ethyl)cyclobutyl)(methyl)amino)methyl)cyclopentane-1,2-diol]",< 100
5,"CN(C[C@H]1O[C@@H](n2cnc3c(N)ncnc32)[C@H](O)[C@@H]1O)C1CC(NC(=O)Nc2ccc(C(C)(C)C)cc2)C1 (stereo partly drawn) [Compound 8, 1-(3-((((2R,3S,4R,5R)-5-(6-amino-9H-purin-9-yl)-3,4-dihydroxytetrahydrofuran-2-yl)methyl)(methyl)amino)cyclobutyl)-3-(4-(tert-butyl)phenyl)urea]",10000 to 50000
6,"CN(C[C@H]1C[C@@H](n2ccc3c(N)ncnc32)[C@H](O)[C@@H]1O)[C@H]1C[C@@H](CCc2nc3cc(C(F)(F)F)c(Cl)cc3[nH]2)C1 [Compound 9, (1R,2S,3R,5R)-3-(4-amino-7H-pyrrolo[2,3-d]pyrimidin-7-yl)-5-((((1r,3S)-3-(2-(6-chloro-5-(trifluoromethyl)-1H-benzo[d]imidazol-2-yl)ethyl)cyclobutyl)(methyl)amino)methyl)cyclopentane-1,2-diol]",< 100
7,"CN(C[C@H]1C[C@@H](n2ccc3c(N)ncnc32)[C@H](O)[C@@H]1O)[C@H]1C[C@@H](CCc2nc3cc(C(F)(F)F)ccc3[nH]2)C1 [Compound 10, (1R,2S,3R,5R)-3-(4-amino-7H-pyrrolo[2,3-d]pyrimidin-7-yl)-5-((methyl((1r,3S)-3-(2-(5-(trifluoromethyl)-1H-benzo[d]imidazol-2-yl)ethyl)cyclobutyl)amino)methyl)cyclopentane-1,2-diol]",< 100
8,"CN(C[C@H]1C[C@@H](n2ccc3c(N)ncnc32)[C@H](O)[C@@H]1O)[C@H]1C[C@H](CCc2nc3cc(C(F)(F)F)ccc3[nH]2)C1 [Compound 11, (1R,2S,3R,5R)-3-(4-amino-7H-pyrrolo[2,3-d]pyrimidin-7-yl)-5-((methyl((1s,3R)-3-(2-(5-(trifluoromethyl)-1H-benzo[d]imidazol-2-yl)ethyl)cyclobutyl)amino)methyl)cyclopentane-1,2-diol]",< 100
9,"CN(C[C@H]1C[C@@H](n2ccc3c(N)ncnc32)[C@H](O)[C@@H]1O)[C@H]1C[C@H](CCc2nc3cc(C(F)(F)F)c(Cl)cc3[nH]2)C1 [Compound 12, (1R,2S,3R,5R)-3-(4-amino-7H-pyrrolo[2,3-d]pyrimidin-7-yl)-5-((((1s,3R)-3-(2-(6-chloro-5-(trifluoromethyl)-1H-benzo[d]imidazol-2-yl)ethyl)cyclobutyl)(methyl)amino)methyl)cyclopentane-1,2-diol]",< 100
10,"CN(C[C@H]1C[C@@H](n2ccc3c(N)ncnc32)[C@H](O)[C@@H]1O)C1CC(CCc2nc3cc(C(F)(F)F)ccc3[nH]2)C1 (stereo partly drawn) [Compound 13, (1R,2S,3R,5R)-3-(4-amino-7H-pyrrolo[2,3-d]pyrimidin-7-yl)-5-((methyl(3-(2-(5-(trifluoromethyl)-1H-benzo[d]imidazol-2-yl)ethyl)cyclobutyl)amino)methyl)cyclopentane-1,2-diol]",< 100
11,CC(C)N(CC1CC(Cc2nc3cc(C(F)(F)F)ccc3[nH]2)C1)C[C@H]1C[C@@H](n2ccc3c(N)ncnc32)[C@H](O)[C@@H]1O (stereo partly drawn) [Compound 15],1000 to 10000
12,"CN(C[C@@H]1C[C@@H](O)[C@H](n2ccc3c(N)ncnc32)C1)C1CC(CCc2nc3cc(Cl)c(C(F)(F)F)cc3[nH]2)C1 (stereo partly drawn) [Compound 17, (1R,2R,4S)-2-(4-amino-7H-pyrrolo[2,3-d]pyrimidin-7-yl)-4-(((3-(2-(5-chloro-6-(trifluoromethyl)-1H-benzo[d]imidazol-2-yl)ethyl)cyclobutyl) (methyl)amino)methyl) cyclopentanol]",100 to 1000
13,"CN(CC1CC(Cc2nc3cc(C(F)(F)F)ccc3[nH]2)C1)C[C@H]1C[C@@H](n2ccc3c(N)ncnc32)[C@H](O)[C@@H]1O (stereo partly drawn) [Compound 18, (1R,2S,3R,5R)-3-{4-amino-7H-pyrrolo[2,3-d]pyrimidin-7-yl}-5-({methyl[(3-{[5-(trifluoromethyl)-1H-1,3-benzodiazol-2-yl]methyl}cyclobutyl)methyl]amino}methyl)cyclopentane-1,2-diol]",100 to 1000
14,"CC(C)N(C[C@H]1C[C@@H](n2ccc3c(N)ncnc32)[C@H](O)[C@@H]1O)C1CC(CCc2nc3cc(C(C)(C)C)ccc3[nH]2)C1 (stereo partly drawn) [Compound 19, (1R,2S,3R,5R)-3-(4-amino-7H-pyrrolo[2,3-d]pyrimidin-7-yl)-5-(((3-(2-(5-(tert-butyl)-1H-benzo[d]imidazol-2-yl)ethyl)cyclobutyl)(isopropyl)amino)methyl)cyclopentane-1,2-diol]",< 100
15,"CC(C)N(C[C@H]1C[C@@H](n2ccc3c(N)ncnc32)[C@H](O)[C@@H]1O)C1CC(CCc2nc3cc(C(F)(F)F)c(Cl)cc3[nH]2)C1 (stereo partly drawn) [Compound 20, (1R,2S,3R,5R)-3-(4-amino-7H-pyrrolo[2,3-d]pyrimidin-7-yl)-5-(((3-(2-(6-chloro-5-(trifluoromethyl)-1H-benzo[d]imidazol-2-yl)ethyl)cyclobutyl)(isopropyl)amino)methyl)cyclopentane-1,2-diol]",< 100
16,"CC(C)N(CC1CC(Cc2nc3cc(C(F)(F)F)c(Cl)cc3[nH]2)C1)C[C@H]1C[C@@H](n2ccc3c(N)ncnc32)[C@H](O)[C@@H]1O (stereo partly drawn) [Compound 21, (1R,2S,3R,5R)-3-{4-amino-7H-pyrrolo[2,3-d]pyrimidin-7-yl}-5-({[(3-{[6-chloro-5-(trifluoromethyl)-1H-1,3-benzodiazol-2-yl]methyl}cyclobutyl)methyl](propan-2-yl)amino}methyl)cyclopentane-1,2-diol]",1000 to 10000
17,"CC(C)N(CC1CC(Cc2nc3cc(C(C)(C)C)ccc3[nH]2)C1)C[C@H]1C[C@@H](n2ccc3c(N)ncnc32)[C@H](O)[C@@H]1O (stereo partly drawn) [Compound 22, (1R,2S,3R,5R)-3-{4-amino-7H-pyrrolo[2,3-d]pyrimidin-7-yl}-5-{[({3-[(5-tert-butyl-1H-1,3-benzodiazol-2-yl)methyl]cyclobutyl}methyl)(propan-2-yl)amino]methyl}cyclopentane-1,2-diol]",100 to 1000

# Same assay, conditions: read-out: DOT1L IC50
row,SMILES,IC50 [nM]
1,CC(C)N(C[C@H]1O[C@@H](n2cnc3c(N)ncnc32)[C@H](O)[C@@H]1O)[C@H]1C[C@@H](CCc2nc3cc(Cl)c(C(F)(F)F)cc3[nH]2)C1 [Compound 5],0.59
